As usually defined, the IC50 is the point on the concentration scale where inhibition reaches its midpoint.

For 25 compounds, IC50 results are on record in patent publication US20250092031A1, “RIPK3 INHIBITORS AND METHODS OF USE” (Momentum Therapeutics, Inc., priority 2023, published 2025).

Bounds are passed on as bounds.

One assay concerns the target T1, RIPK3 (Homo sapiens, UniProt Q9Y572).
T1 construct: purchased Reaction Biology Corporation (RBC), Malvern, USA (contract assay service)
Kind of assay: RIPK3 kinase assay (radiometric HotSpot, Reaction Biology Corporation). Format: biochemical. The protocol:
The assays were performed in Reaction Biology Corporation (RBC), Malvern, USA. Compounds were diluted with DMSO to a final stock concentration of 10 mM and then were tested in a 10-dose IC50 mode with a 3-fold serial dilution starting at […]. All the reactions were carried out at 10 μM ATP and MBP 20 μM as substrates. RIPK3 activity was determined using radiometric HotSpot™ kinase assay protocol and IC50 values were calculated use GraphPad Prism software.

The test system of the next assay is Human HT-29 cells. Kind of assay: Necroptosis inhibition assay in HT-29 cells (hTNFα + zVAD + SMAC mimetic, Sytox Green/Hoechst). To be noted: 10 ng/ml hTNFα, 20 μM zVAD and 100 nM SMAC mimetic, 6 hours, Sytox/Hoechst positive cells, read-out: HT29 necroptosis inhibition IC50. Type of assay: cell-based. As for the experimental part:
Human HT-29 cells (ATCC-HTB-38) were seeded at 10,000 cells/well in a 96-well plate. Cells were treated 48 hours after seeding with 10 ng/ml hTNFα (R&D Systems), 20 μM zVAD (ChemShuttle) and 100 nM SMAC mimetic (MedChem Express) in the presence of different concentrations of compounds ranging from […] to 0.01 μM. Cells treated with 0.1% DMSO or cells treated with TNFα+zVAD+SMAC mimetic were used as control and vehicle respectively.
Assay plates containing cells were incubated for 6 hours at 37° C. and 5% CO2. Necroptosis was assessed using Sytox Green Nucleic Acid Stain (Invitrogen) and Hoechst staining. After incubation, 100 μL of Sytox dye at 2 μM (2×) diluted in HBSS 1× was added to each well. At the same time, Hoechst stain is added to a final concentration of 10 μM and incubated for 15 min at room temperature. Images were taken for Sytox and Hoechst using the Cytation 5 microplate reader with DAPI and GFP filter cubes (Biotek). Sytox and Hoechst positive cells were counted with CellProfiler software.
Percentage of necroptosis inhibition was calculated as the percent compared to control and vehicle conditions which correspond to 100% and 0% respectively. The half-maximum necroptosis inhibition (IC50) levels were calculated using GraphPad Prism software and are shown in Table 3 (NT represents compound not tested).

A further assay relates to Murine L929 cells. Kind of assay: Necroptosis inhibition assay in L929 cells (mTNFα + zVAD, Sytox Green). Format: cell-based. Conditions: Mus musculus, 10 ng/ml mTNFα and 20 μM zVAD, 6 hours, Sytox Green fluorescence. The essentials:
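Murine L929 cells, treated 48 h after seeding with 10 ng/ml mTNFα plus 20 μM zVAD and compound ([…]), 6 h at 37° C. Necroptosis read by Sytox Green fluorescence (500ex/530em), scaled between 0.1% DMSO and TNFα+zVAD wells; IC50 from inhibition curves.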

T1 sequence (Q9Y572 whole entry): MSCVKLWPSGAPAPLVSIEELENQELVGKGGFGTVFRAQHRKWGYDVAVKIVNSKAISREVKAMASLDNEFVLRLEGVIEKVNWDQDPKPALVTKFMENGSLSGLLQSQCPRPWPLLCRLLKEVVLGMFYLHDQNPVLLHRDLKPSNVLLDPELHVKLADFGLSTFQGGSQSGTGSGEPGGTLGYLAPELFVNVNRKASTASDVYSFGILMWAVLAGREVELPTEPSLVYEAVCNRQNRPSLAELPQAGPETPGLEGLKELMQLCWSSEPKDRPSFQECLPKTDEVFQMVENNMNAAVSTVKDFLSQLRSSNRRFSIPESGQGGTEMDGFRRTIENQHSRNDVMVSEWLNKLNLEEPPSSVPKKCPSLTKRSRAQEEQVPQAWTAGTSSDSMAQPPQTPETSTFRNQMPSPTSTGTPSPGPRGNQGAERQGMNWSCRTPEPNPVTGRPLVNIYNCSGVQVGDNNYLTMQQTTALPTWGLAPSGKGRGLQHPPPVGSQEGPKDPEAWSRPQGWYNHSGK

As to `CN1CCN(Cc2ccc(-c3ccc4nccc(Nc5ccc6scnc6c5)c4c3)cc2)CC1` [Compound 1, N-(6-(4-((4-methylpiperazin-1-yl)methyl)phenyl)quinolin-4-yl)benzo[d]thiazol-5-amine], the values for the IC50 against RIPK3, in the assay with Human HT-29 cells and in the assay on Murine L929 cells were 2.58 nM, 334 nM and 341 nM, respectively.
On the same counts, the results for `CN1CCN(Cc2ccc(-c3ccc4nccc(Nc5ccc6scnc6c5)c4c3)c(F)c2)CC1` [Compound 11, N-(6-(2-fluoro-4-((4-methylpiperazin-1-yl)methyl)phenyl)quinolin-4-yl)benzo[d]thiazol-5-amine] are 1.29 nM, 102 nM and 333 nM.
For the compound `O=C1CN(Cc2ccc(-c3ccc4nccc(Nc5ccc6scnc6c5)c4c3)c(F)c2)CCN1` [Compound 12, 4-(4-(4-(benzo[d]thiazol-5-ylamino)quinolin-6-yl)-3-fluorobenzyl)piperazin-2-one], the half-maximal inhibitory concentration (IC50) turned out to be 1.67 nM on RIPK3, 208 nM with Human HT-29 cells and 776 nM in the assay with Murine L929 cells.
On the same counts, the results for `CN1CCN(Cc2ccc(-c3ccc4nccc(Nc5ccc6scnc6c5)c4c3)c(F)c2)CC1=O` [Compound 13, 4-(4-(4-(benzo[d]thiazol-5-ylamino)quinolin-6-yl)-3-fluorobenzyl)-1-methylpiperazin-2-one] are 1.72 nM, 317 nM and 1130 nM.
Take `Fc1cc(CN2CCCCC2)ccc1-c1ccc2nccc(Nc3ccc4scnc4c3)c2c1` [Compound 14, N-(6-(2-fluoro-4-(piperidin-1-ylmethyl)phenyl)quinolin-4-yl)benzo[d]thiazol-5-amine]: the IC50 on RIPK3 came to 2.99 nM; in the assay on Human HT-29 cells it was 565 nM; with Murine L929 cells, 492 nM.
As to `CN1CCN(c2ccc(-c3ccc4nccc(Nc5ccc6scnc6c5)c4c3)cc2)CC1` [Compound 15, N-(6-(4-(4-methylpiperazin-1-yl)phenyl)quinolin-4-yl)benzo[d]thiazol-5-amine], the IC50 was 3.57 nM at RIPK3, over 1000 nM with Human HT-29 cells and 1190 nM with Murine L929 cells.
On the same counts, the results for `CN1CCN(Cc2ccc(-c3ccc4c(Nc5ccc6scnc6c5)ccnc4c3)cc2)CC1` [Compound 16, N-(7-(4-((4-methylpiperazin-1-yl)methyl)phenyl)quinolin-4-yl)benzo[d]thiazol-5-amine] are 0.51 nM, 158 nM and 104 nM.
Regarding `CN1CCN(Cc2ccc(-c3ccc4nccc(Nc5ccc6scnc6c5)c4c3)cc2F)CC1` [Compound 21, N-(6-(3-fluoro-4-((4-methylpiperazin-1-yl)methyl)phenyl)quinolin-4-yl)benzo[d]thiazol-5-amine], the IC50 is 1.51 nM against RIPK3 and under 10000 nM in the assay on Murine L929 cells.
Taken in the same sequence, the figures for `O=C(c1ccc(-c2ccc3c(Nc4ccc5scnc5c4)ccnc3c2)c(F)c1)N1CCOCC1` [Compound 244, (4-(4-(benzo[d]thiazol-5-ylamino)quinolin-7-yl)-3-fluorophenyl)(morpholino)methanone] were 1.92 nM and under 1000 nM.
Regarding `O=C(c1ccc(-c2ccc3c(Nc4ccc5scnc5c4)ccnc3c2)c(Cl)c1)N1CC2(CNC2)C1` [Compound 312, (4-(4-(benzo[d]thiazol-5-ylamino)quinolin-7-yl)-3-chlorophenyl)(2,6-diazaspiro[3.3]heptan-2-yl)methanone], the IC50 worked out at 1560 nM in the assay on Human HT-29 cells and 668 nM in the assay on Murine L929 cells.
As for `O=C(c1ccc(-c2ccc3c(Nc4ccc5scnc5c4)ccnc3c2)c(F)c1)N1[C@@H]2CNC[C@H]1C2` [Compound 313, (4-(4-(benzo[d]thiazol-5-ylamino)quinolin-7-yl)-3-fluorophenyl)((1R,5S)-3,6-diazabicyclo[3.1.1]heptan-6-yl)methanone], the IC50 in the assay with Human HT-29 cells came to 302 nM; in the assay with Murine L929 cells, 402 nM.
Taken in the same sequence, the figures for `CN1CCN(C(=O)c2ccc(-c3ccc4nccc(Nc5ccc6scnc6c5)c4c3)c(F)c2)CC1(C)C` [Compound 315, (4-(4-(benzo[d]thiazol-5-ylamino)quinolin-6-yl)-3-fluorophenyl)(3,3,4-trimethylpiperazin-1-yl)methanone] were 120 nM and 396 nM.
Taken in the same sequence, the figures for `CS(=O)(=O)N1CC2(CN(C(=O)c3ccc(-c4ccc5nccc(Nc6ccc7scnc7c6)c5c4)c(F)c3)C2)C1` [Compound 316, (4-(4-(benzo[d]thiazol-5-ylamino)quinolin-6-yl)-3-fluorophenyl)(6-(methylsulfonyl)-2,6-diazaspiro[3.3]heptan-2-yl)methanone] were 269 nM and 1580 nM.
In the case of `O=C(c1ccc(-c2ccc3nccc(Nc4ccc5scnc5c4)c3c2)c(F)c1)N1CCC(O)CC1` [Compound 317, (4-(4-(benzo[d]thiazol-5-ylamino)quinolin-6-yl)-3-fluorophenyl)(4-hydroxypiperidin-1-yl)methanone], the IC50 with Human HT-29 cells is 169 nM; in the assay on Murine L929 cells it was 707 nM.
Taken in the same sequence, the figures for `CC1(O)CCN(C(=O)c2ccc(-c3ccc4nccc(Nc5ccc6scnc6c5)c4c3)c(F)c2)CC1` [Compound 318, (4-(4-(benzo[d]thiazol-5-ylamino)quinolin-6-yl)-3-fluorophenyl)(4-hydroxy-4-methylpiperidin-1-yl)methanone] were 53.7 nM and 686 nM.
On the same counts, the results for `CC1(O)CCN(Cc2ccc(-c3ccc4nccc(Nc5ccc6scnc6c5)c4c3)c(F)c2)CC1` [Compound 319, 1-(4-(4-(benzo[d]thiazol-5-ylamino)quinolin-6-yl)-3-fluorobenzyl)-4-methylpiperidin-4-ol] are 284 nM and 301 nM.
Taken in the same sequence, the figures for `CNC(=O)CNCc1ccc(-c2ccc3nccc(Nc4ccc5scnc5c4)c3c2)c(F)c1` [Compound 320, 2-((4-(4-(benzo[d]thiazol-5-ylamino)quinolin-6-yl)-3-fluorobenzyl)amino)-N-methylacetamide] were 243 nM and 444 nM.
On to `COC1CCN(C(=O)c2ccc(-c3ccc4nccc(Nc5ccc6scnc6c5)c4c3)c(F)c2)CC1` [Compound 321, (4-(4-(benzo[d]thiazol-5-ylamino)quinolin-6-yl)-3-fluorophenyl)(4-methoxypiperidin-1-yl)methanone], for which the results for the IC50 in the assay on Human HT-29 cells and in the assay with Murine L929 cells were 109 nM and 238 nM, respectively.
For `O=C(c1ccc(-c2cc3c(Nc4ccc5scnc5c4)ccnc3cc2F)c(F)c1)N1CCOCC1` [Compound 322, (4-(4-(benzo[d]thiazol-5-ylamino)-7-fluoroquinolin-6-yl)-3-fluorophenyl)(morpholino)methanone], the IC50 in the assay on Human HT-29 cells was 111 nM; in the assay on Murine L929 cells it was 175 nM.
Regarding `Fc1cc(CN2CC3(CNC3)C2)ccc1-c1ccc2c(Nc3ccc4scnc4c3)ccnc2c1` [Compound 323, N-(7-(4-((2,6-diazaspiro[3.3]heptan-2-yl)methyl)-2-fluorophenyl)quinolin-4-yl)benzo[d]thiazol-5-amine], the half-maximal inhibitory concentration (IC50) with Human HT-29 cells amounted to 296 nM; with Murine L929 cells it was 454 nM.
Taken in the same sequence, the figures for `O=C(c1ccc(-c2ccc3nccc(Nc4ccc5scnc5c4)c3c2)c(F)c1)N1CC2(COC2)C1` [Compound 324, (4-(4-(benzo[d]thiazol-5-ylamino)quinolin-6-yl)-3-fluorophenyl)(2-oxa-6-azaspiro[3.3]heptan-6-yl)methanone] were 76.5 nM and 223 nM.
On the same counts, the results for `O=C(NC1CCOCC1)c1ccc(-c2ccc3nccc(Nc4ccc5scnc5c4)c3c2)c(F)c1` [Compound 325, 4-(4-(benzo[d]thiazol-5-ylamino)quinolin-6-yl)-3-fluoro-N-(tetrahydro-2H-pyran-4-yl)benzamide] are 69.7 nM and 665 nM.
Taken in the same sequence, the figures for `O=C(c1ccc(-c2ccc3nccc(Nc4ccc5scnc5c4)c3c2)cn1)N1CCOCC1` [Compound 326, (5-(4-(benzo[d]thiazol-5-ylamino)quinolin-6-yl)pyridin-2-yl)(morpholino)methanone] were 305 nM and 1790 nM.
As for `CN1CCN(Cc2ccc(-c3ccc4c(Nc5ccc6scnc6c5)ccnc4c3)c(F)c2)CC1=O` [Compound 327, 4-(4-(4-(benzo[d]thiazol-5-ylamino)quinolin-7-yl)-3-fluorobenzyl)-1-methylpiperazin-2-one], the half-inhibitory concentration (IC50) in the assay on Human HT-29 cells was found to be 25.2 nM; in the assay with Murine L929 cells, 160 nM.
Taken in the same sequence, the figures for `CC(C)S(=O)(=O)c1ccc2nccc(Nc3ccc4scnc4c3)c2c1` [Compound A, N-(6-(isopropylsulfonyl)quinolin-4-yl)benzo[d]thiazol-5-amine, reference compound] were 1260 nM and 1960 nM.
